Data on two compounds can be found in PMC4856769 (Cell Research, 2016).

This experiment deals with T1, YEATS domain of YEATS2 (YEATS2 201-332) (Homo sapiens, UniProt Q9ULM3).
T1 sequence (Q9ULM3 201-332): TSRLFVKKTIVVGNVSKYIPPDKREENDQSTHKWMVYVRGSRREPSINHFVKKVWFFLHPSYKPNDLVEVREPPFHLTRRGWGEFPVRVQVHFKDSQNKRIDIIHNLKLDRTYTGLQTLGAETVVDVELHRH
Kind of experiment: ITC binding of histone peptides to the YEATS domain of YEATS2.

Regarding “ARTKQT ARKST GGK(cr)APRKQLATKAA [H31-25K14cr]”, the “binding (in words)” value (ITC, 15°C, wild type YEATS2 201-332) is on record as “No binding”.

Regarding `C/C=C/C(=O)NCCCC[C@H](NC(=O)[C@@H](NC(=O)[C@H](CCCNC(=N)N)NC(=O)[C@H](C)N)[C@@H](C)O)C(=O)N[C@@H](CCC(N)=O)C(=O)N[C@H](C(=O)N[C@@H](C)C(=O)N[C@@H](CCCNC(=N)N)C(=O)N[C@@H](CCCCN)C(=O)N[C@@H](CO)C(=O)N[C@H](C(=O)NCC(=O)NCC(=O)N[C@@H](CCCCN)C(=O)N[C@@H](C)C(=O)O)[C@@H](C)O)[C@@H](C)O` [H31-15K4cr], the affinity, expressed as Kd, was 121 µM.
